Where two headings read alike, the source gives them in different places.
Assays:
[1] = biological target: HEK-293 cells expressing human recombinant adenosine A2A receptor (Homo sapiens (Human), UniProt P29274); test: cAMP assay, Assay 2 (Eu-cAMP tracer / ULight-anti-cAMP); format: cell-based
Method: The functional activity of compounds was tested using one of the two assays to detect the present of cAMP. Activation of G-protein coupled receptors (such as A2A) results in activation of adenylcyclase which converts ATP into cAMP which is used as a downstream signaling molecule. Therefore, molecules which act as GPCR (or specifically A2A receptor) antagonists cause a decrease in intracellular cAMP concentration.
Both assays used HEK-293 cells expressing human recombinant adenosine A2A receptor were grown prior to the test in media without antibiotic.
Assay 2 (Table B2-2): 100 nL of test articles at 100× of final concentration were transferred to assay plate by Echo. Cells were washed twice with 5 mL of PBS […]. After aspirating the PBS and adding 1.5 mL versine, cells were incubated at 37° C. for 2-5 min. After centrifugation, 4 mL of medium was added and adjusted cell density to 5,000 cells/well with Stimulation Buffer. 10 μL of cells were aliquoted to the assay plate, centrifuged at 1000 rpm for 1 minute, and incubated for 60 minutes at room temperature. 5 μL 4×Eu-cAMP tracer solution and 5 μL 4×Ulight™-anti-cAMP solution were added to assay plate, followed by centrifugation and 60-minute incubation at room temperature. Plates were read on EnVision.

[2] = biological target: human adenosine A2A membrane preparation (Homo sapiens (Human), UniProt P29274); test: Adenosine A2A receptor radioligand binding assay (SPA beads, 3H-SCH 58261, 384 plate); conditions: for inhibition at 3 µM: read-out: A2a binding % inh @ 3000 nM; for IC50: Table B1-2; for inhibition at 0.001 µM: read-out: A2a binding % inh @ 1 nM; for inhibition at 0.01 µM: read-out: A2a binding % inh @ 10 nM; for inhibition at 0.1 µM: read-out: A2a binding % inh @ 100 nM; for inhibition at 1 µM: read-out: A2a binding % inh @ 1000 nM
Method: For the A2A adenosine receptor radioligand binding assay, the following modifications were made to the general protocol. GF/C filters (Perkin Elmer, 6005174), presoaked in 0.01% Brij for 2 h at room temperature were used. Filters were washed six times with 0.5 mL of ice-cold washing buffer (50 mM Tris pH 7.4) and 50 μL of Microscint 20 (Packard) was added in each well. The plates were then incubated for 15 min on an orbital shaker and then counted with a TopCount™ for 1 min/well. Another radioligand binding assay was used to evaluate the binding affinity for the adenosine A2A receptor assay was performed in duplicate in the wells of a 384 plate. Assay buffer contained DPBS 500 mM, MgCl2 0.1 mM, and 1% DMSO. Membrane-bead suspension was prepared by mixing 25.98 μL of human adenosine A2A membrane preparation (Perkin Elmer, RBHA2AM400UA) at 33.4 μg/mL, 28 μL of ADA at 20 μg/mL, and 932 μL of SPA beads at 3.33 mg/mL) and incubated the mixture for 20 min at room temperature. Mixed 20 μL of radiotracer (^3H-SCH 58261) at 15 nM to each well containing test articles at various concentrations and centrifuge the plate at 1000 rpm for 1 minute. Added 30 μL of the membraine-bead suspension to each well. Sealed the plates and incubated for 1 hr at room temperature with vigorous mixing on a plate mixer. Plates were read on Microbeta^2 (Perkin Elmer, 2450-0010).

[3] = HEK293, 100 nM, Assay 2, read-out: A2a cAMP % inh @ 100 nM
[4] = HEK293, read-out: A2a cAMP % inh @ 100 nM

Sequence of HEK-293 cells expressing human recombinant adenosine A2A receptor (P29274 whole entry): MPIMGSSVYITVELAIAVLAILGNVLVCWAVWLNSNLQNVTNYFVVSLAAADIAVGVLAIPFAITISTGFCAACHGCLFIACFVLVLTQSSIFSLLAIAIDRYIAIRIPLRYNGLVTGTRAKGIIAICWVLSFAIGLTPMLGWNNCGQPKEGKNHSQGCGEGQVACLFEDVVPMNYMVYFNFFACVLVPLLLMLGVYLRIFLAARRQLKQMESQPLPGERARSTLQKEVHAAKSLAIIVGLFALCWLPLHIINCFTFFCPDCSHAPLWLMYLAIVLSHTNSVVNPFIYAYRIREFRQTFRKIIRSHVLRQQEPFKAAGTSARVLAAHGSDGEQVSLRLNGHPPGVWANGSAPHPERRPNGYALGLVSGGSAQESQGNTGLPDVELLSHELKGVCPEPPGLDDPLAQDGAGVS
Sequence of human adenosine A2A membrane preparation (P29274 whole entry): as above

Compound | inhibition at 0.1 µM [1, 3] [%] | inhibition at 3 µM [2] [%] | IC50 ([1]; Assay 2) [nM] | further results
Nc1cnc(-c2ccc3ncccc3c2)c(-c2nccs2)n1 [Compound No. 1.279, 5-(quinolin-6-yl)-6-(1,3-thiazol-2-yl)pyrazin-2-amine] | 9 | 58 |  | 
Cc1cccc(CNC(=O)c2nc(-c3ccc4ncccc4c3)c(-c3ccccc3)nc2N)n1 [Compound No. 1.273, 3-amino-N-((6-methylpyridin-2-yl)methyl)-5-phenyl-6-(quinolin-6-yl)pyrazine-2-carboxamide] |  | 100 | 12 | 
Cn1ccc(-c2nc(N)cnc2-c2ccc3c(=O)[nH]ccc3c2)n1 [Compound 1.315, 6-(5-amino-3-(1-methyl-1H-pyrazol-3-yl)pyrazin-2-yl)isoquinolin-1-ol] |  |  | 1400 | IC50 [2]: 101 nM
Cc1ccn(-c2nc(N)cnc2-c2ccc3[nH]ncc3c2)n1 [Compound No. 1.287, 5-(1H-indazol-5-yl)-6-(3-methyl-1H-pyrazol-1-yl)pyrazin-2-amine] | 16 |  |  | inhibition at 0.001 µM [2]: 42%; inhibition at 0.01 µM [2]: 77%; inhibition at 0.1 µM [2]: 90%; inhibition at 1 µM [2]: 80%
Cc1ccc(-c2nc(N)cnc2-c2ccc3ncccc3c2)s1 [Compound No. 1.210, 6-(5-methylthiophen-2-yl)-5-(quinolin-6-yl)pyrazin-2-amine] | 100 | 100 |  | 
Cc1ccn(-c2nc(N)cnc2-c2ccc3ncccc3c2)n1 [Compound No. 1.280] | 51 | 75 |  | 
Cn1ccc(-c2nc(N)cnc2-c2cc(Cl)c3ncccc3c2)n1 [Compound 1.297, 5-(8-chloroquinolin-6-yl)-6-(1-methyl-1H-pyrazol-3-yl)pyrazin-2-amine] |  |  | 47.9 | IC50 [2]: 17 nM
Cc1ccc(-c2nc(N)cnc2-c2cc(Cl)c3[nH]cnc3c2)o1 [Compound No. 1.45, 5-(7-chloro-1H-benzimidazol-5-yl)-6-(5-methylfuran-2-yl)pyrazin-2-amine] |  | 91 |  | inhibition at 0.1 µM [1, 4]: 100%
CN1CCN(c2nc(-c3ccc4ncccc4c3)c(-c3ccccc3)nc2N)CC1 [Compound No. 1.276] | 0 | 24 |  | 
Nc1nc(-c2ccccc2)c(-c2ccc3ncccc3c2)nc1N1CCOCC1 [Compound No. 1.275, 3-morpholino-6-phenyl-5-(quinolin-6-yl)pyrazin-2-amine] | 0 | 11 |  | 
Cn1ccc(-c2nc(N)cnc2-c2ccc3ncccc3c2)n1 [Compound No. 1.285, 6-(1-methyl-1H-pyrazol-3-yl)-5-(quinolin-6-yl)pyrazin-2-amine] | 34 |  |  | inhibition at 0.01 µM [2]: 56%; inhibition at 0.1 µM [2]: 76%; inhibition at 1 µM [2]: 90%
Nc1cnc(-c2cc(Cl)c3ncccc3c2)c(-c2cc3ccccc3o2)n1 [Compound No. 1.278] |  | 95 | 304 | 
Nc1cnc(-c2ccc3ncccc3c2)c(-c2ccccn2)n1 [Compound No. 1.25, 6-(pyridin-2-yl)-5-(quinolin-6-yl)pyrazin-2-amine] |  | 48 |  | inhibition at 0.1 µM [1, 4]: 6%
Cc1ccn(-c2nc(N)cnc2-c2cc(Cl)c3[nH]ncc3c2)n1 [Compound 1.295, 5-(7-chloro-1H-indazol-5-yl)-6-(3-methyl-1H-pyrazol-1-yl)pyrazin-2-amine] |  |  | 33 | IC50 [2]: 5.5 nM
Nc1cnc(-c2cc(Cl)c3ncccc3c2)c(-n2ccccc2=O)n1 [Compound 1.308, 1-(6-amino-3-(8-chloroquinolin-6-yl)pyrazin-2-yl)pyridin-2(1H)-one] |  |  | > 10000 | IC50 [2]: > 10000 nM
Cc1ncc(-c2nc(N)cnc2-c2ccc3ncccc3c2)s1 [Compound No. 1.288, 6-(2-methylthiazol-5-yl)-5-(quinolin-6-yl)pyrazin-2-amine] |  |  | 1050 | IC50 [2]: 55.5 nM; inhibition at 0.001 µM [2]: 42%; inhibition at 0.01 µM [2]: 83%; inhibition at 0.1 µM [2]: 86%; inhibition at 1 µM [2]: 84%
Cc1ccn(-c2nc(N)cnc2-c2ccc3ncsc3c2)n1 [Compound No. 1.286, 5-(benzo[d]thiazol-6-yl)-6-(3-methyl-1H-pyrazol-1-yl)pyrazin-2-amine] | 20 |  |  | inhibition at 0.001 µM [2]: 40%; inhibition at 0.01 µM [2]: 87%; inhibition at 0.1 µM [2]: 96%; inhibition at 1 µM [2]: 86%
Cn1ccc(-c2nc(N)cnc2-c2cc(Cl)c3[nH]ncc3c2)n1 [Compound 1.304, 5-(7-chloro-1H-indazol-5-yl)-6-(1-methyl-1H-pyrazol-3-yl)pyrazin-2-amine] |  |  | 40 | IC50 [2]: 9 nM
Nc1cnc(-c2ccc3ncccc3c2)c(N2CCCC2=O)n1 [Compound 1.301, 1-(6-amino-3-(quinolin-6-yl)pyrazin-2-yl)pyrrolidin-2-one] |  |  | > 10000 | 

Further lines, with some results ahead:

inhibition at 0.1 µM [1, 3] [%] | inhibition at 3 µM [2] [%] | IC50 ([1]; Assay 2) [nM] | Compound | further results
9 | 20 |  | Nc1cnc(-c2ccc3ccccc3c2)c(-c2ccccc2)n1 [Compound No. 1.185, 5-(naphthalen-2-yl)-6-phenylpyrazin-2-amine] | 
96 | 80 |  | NC(=O)c1nc(-c2ccc3ncccc3c2)c(-c2ccccc2)nc1N [Compound No. 1.272, 3-amino-5-phenyl-6-(quinolin-6-yl)pyrazine-2-carboxamide] | 
12 | 30 |  | Nc1cnc(-c2ccc3c(c2)CCCN3)c(-c2ccccc2)n1 [Compound No. 1.186, 6-phenyl-5-(1,2,3,4-tetrahydroquinolin-6-yl)pyrazin-2-amine] | 
87 | 83 |  | N#Cc1nc(-c2ccc3ncoc3c2)c(-c2ccccc2)nc1N [Compound No. 1.193, 3-amino-6-(benzo[d]oxazol-6-yl)-5-phenylpyrazine-2-carbonitrile] | 
7 | 11 |  | Nc1nc(-c2ccccc2)c(-c2ccc3ncccc3c2)nc1C(=O)O [Compound No. 1.238, 3-amino-5-phenyl-6-(quinolin-6-yl) pyrazine-2-carboxylic acid] | 
93 | 89 |  | N#Cc1nc(-c2ccc3ncsc3c2)c(-c2ccccc2)nc1N [Compound No. 1.192, 3-amino-6-(benzo[d]thiazol-6-yl)-5-phenylpyrazine-2-carbonitrile] | 
77 | 81 |  | Nc1cnc(-c2ccc3ncsc3c2)c(-c2ccccc2)n1 [Compound No. 1.36, 5-(benzo[d]thiazol-6-yl)-6-phenylpyrazin-2-amine] | 
60 | 80 |  | N#Cc1nc(-c2ccc3[nH]ncc3c2)c(-c2ccccc2)nc1N [Compound No. 1.274, 3-amino-6-(1H-indazol-5-yl)-5-phenylpyrazine-2-carbonitrile] | 
 |  | 35.7 | Cc1ccn(-c2nc(N)c(C#N)nc2-c2ccc3ncccc3c2)n1 [Compound No. 1.290, 3-amino-5-(3-methyl-1H-pyrazol-1-yl)-6-(quinolin-6-yl)pyrazine-2-carbonitrile] | IC50 [2]: 3.3 nM; inhibition at 0.001 µM [2]: 57%; inhibition at 0.01 µM [2]: 85%; inhibition at 0.1 µM [2]: 89%; inhibition at 1 µM [2]: 89%
80 | 86 |  | Nc1nc(-c2ccccc2)c(-c2ccc3ncccc3c2)nc1O [Compound No. 1.241, 3-amino-5-phenyl-6-(quinolin-6-yl)pyrazin-2-ol] | 
100 | 100 |  | Nc1cnc(-c2ccc3[nH]ncc3c2)c(-c2ccccc2)n1 [Compound No. 1.270, 5-(1H-indazol-5-yl)-6-phenylpyrazin-2-amine] | 
22 | 64 |  | Nc1cnc(-c2ccc3ncoc3c2)c(-c2ccccc2)n1 [Compound No. 1.35, 5-(benzo[d]oxazol-6-yl)-6-phenylpyrazin-2-amine] | 
44 | 83 |  | N#Cc1nc(-c2cc(Cl)c3[nH]cnc3c2)c(-c2ccccc2)nc1N [Compound No. 1.277, 3-amino-6-(7-chloro-1H-benzimidazol-5-yl)-5-phenylpyrazine-2-carbonitrile] | 
